# Measured values published in ChEMBL document CHEMBL1133346, “The synthesis and evaluation of 3-substituted-7-(alkylidene)cephalosporin sulfones as beta-lactamase inhibitors” (Bioorg Med Chem Lett, 2000).
# Key:
# [1] = biological target: Beta-lactamase TEM (Enterobacter cloacae, UniProt Q6W9J1); experiment: Inhibition of class A TEM-1 beta-lactamase derived from Enterobacter cloacae
# [2] = biological target: T1, Beta-lactamase class C (Enterobacter cloacae, UniProt Q59401); experiment: Inhibition of GC1 extended spectrum class C beta-lactamase; design: species or system Enterobacter cloacae GC1
# T1 sequence (Q59401 whole entry): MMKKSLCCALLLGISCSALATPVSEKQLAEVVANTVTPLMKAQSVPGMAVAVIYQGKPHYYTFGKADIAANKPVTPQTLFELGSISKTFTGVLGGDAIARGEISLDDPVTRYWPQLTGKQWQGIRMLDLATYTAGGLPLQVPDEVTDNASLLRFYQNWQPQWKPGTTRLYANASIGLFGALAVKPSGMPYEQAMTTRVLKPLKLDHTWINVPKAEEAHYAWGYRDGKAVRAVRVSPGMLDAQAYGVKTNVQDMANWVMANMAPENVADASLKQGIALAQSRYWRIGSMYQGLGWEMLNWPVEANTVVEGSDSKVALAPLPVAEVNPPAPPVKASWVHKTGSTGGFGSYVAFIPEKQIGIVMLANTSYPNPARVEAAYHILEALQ
# [3] = biological target: T1, Beta-lactamase class C; experiment: Inhibition of class C beta-lactamase derived from Enterobacter cloacae P99
# [4] = biological target: Beta-lactamase (Staphylococcus aureus, UniProt P00807); experiment: Inhibition of class A beta-lactamase derived from Staphylococcus aureus strain PC1
# Sequence of Beta-lactamase (P00807 whole entry): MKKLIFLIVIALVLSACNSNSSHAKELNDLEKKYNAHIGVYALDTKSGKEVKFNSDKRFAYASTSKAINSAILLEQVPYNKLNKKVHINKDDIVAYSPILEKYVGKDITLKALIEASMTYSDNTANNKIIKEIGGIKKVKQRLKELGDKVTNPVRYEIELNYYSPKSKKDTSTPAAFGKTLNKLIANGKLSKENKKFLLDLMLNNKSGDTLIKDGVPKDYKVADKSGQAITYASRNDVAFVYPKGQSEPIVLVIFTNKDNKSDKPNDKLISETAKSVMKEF
# [5] = biological target: T1, Beta-lactamase class C; experiment: The compound was evaluated for inhibition against the GC1 extended spectrum Class C beta-lactamase
# [6] = biological target: T1, Beta-lactamase class C; experiment: The compound was evaluated for inhibition against Class C beta-lactamase derived from Enterobacter cloacae P99
# Sequence of Beta-lactamase TEM (Q6W9J1 whole entry): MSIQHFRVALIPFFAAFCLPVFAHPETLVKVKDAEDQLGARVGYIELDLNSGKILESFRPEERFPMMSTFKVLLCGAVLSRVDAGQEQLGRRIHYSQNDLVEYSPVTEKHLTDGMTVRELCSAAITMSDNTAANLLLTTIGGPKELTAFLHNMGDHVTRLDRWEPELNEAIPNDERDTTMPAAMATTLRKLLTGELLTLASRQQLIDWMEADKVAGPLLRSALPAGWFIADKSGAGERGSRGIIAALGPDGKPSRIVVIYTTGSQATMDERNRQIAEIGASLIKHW
compound,measurement,setting,value
C=C1C(/C=C/C(=O)OC)=C(C(=O)O)N2C(=O)/C(=C/c3ccccn3)C2S1(=O)=O (stereo unspecified),IC50,[1],2900 nM
same,IC50,[2],60 nM
same,IC50,[3],30 nM
same,IC50,[4],6000 nM
O=C(O)C1=C(/C=C/[N+](=O)[O-])CS(=O)(=O)C2/C(=C\c3ccccn3)C(=O)N12 (stereo unspecified),IC50,[1],70 nM
same,IC50,[2],100 nM
same,IC50,[3],20 nM
same,IC50,[4],200 nM
NC(=O)/C=C/C1=C(C(=O)O)N2C(=O)/C(=C/c3ccccn3)C2S(=O)(=O)C1 (stereo unspecified),IC50,[1],90 nM
same,IC50,[2],10 nM
same,IC50,[3],26 nM
same,IC50,[4],100 nM
COC(=O)/C(Cl)=C/C1=C(C(=O)O)N2C(=O)/C(=C/c3ccccn3)C2S(=O)(=O)C1 (stereo unspecified),IC50,[1],70 nM
same,IC50,[2],180 nM
same,IC50,[3],900 nM
same,IC50,[4],1400 nM
COC(=O)/C=C/C1=C(C(=O)O)N2C(=O)/C(=C/c3ccccn3)C2S(=O)(=O)C1 (stereo unspecified),IC50,[1],20 nM
same,IC50,[2],300 nM
same,IC50,[3],200 nM
same,IC50,[4],300 nM
C=C1C(/C=C/C(=O)OC(C)(C)C)=C(C(=O)O)N2C(=O)/C(=C/c3ccccn3)C2S1(=O)=O (stereo unspecified),IC50,[2],150000 nM
same,IC50,[3],440000 nM
O=C(COc1ccccc1)OCC1=C(C(=O)O)N2C(=O)/C(=C/c3ccccn3)C2S(=O)(=O)C1 (stereo unspecified),IC50,[1],800 nM
same,IC50,[2],130 nM
same,IC50,[3],100 nM
same,IC50,[4],100000 nM
C=CC(=O)OCC1=C(C(=O)O)N2C(=O)/C(=C/c3ccccn3)C2S(=O)(=O)C1 (stereo unspecified),IC50,[2],900 nM
same,IC50,[3],100 nM
same,IC50,[4],110000 nM
C=C/C=C/C1=C(C(=O)O)N2C(=O)/C(=C/c3ccccn3)C2S(=O)(=O)C1 (stereo unspecified),IC50,[1],68000 nM
same,IC50,[3],24000 nM
same,IC50,[4],75000 nM
O=C(O)C1=C(/C=C/c2cccc[n+]2[O-])CS(=O)(=O)[C@@H]2/C(=C\c3ccccn3)C(=O)N12,IC50,[1],6 nM
same,IC50,[2],100 nM
same,IC50,[3],600 nM
same,IC50,[4],8600 nM
N#CC1=C(C(=O)O)N2C(=O)/C(=C/c3ccccn3)C2S(=O)(=O)C1 (stereo unspecified),IC50,[1],2340 nM
same,IC50,[3],29 nM
same,IC50,[4],280000 nM
COCC1=C(C(=O)O)N2C(=O)/C(=C/c3ccccn3)C2S(=O)(=O)C1 (stereo unspecified),IC50,[1],700 nM
same,IC50,[2],1200 nM
same,IC50,[3],700 nM
same,IC50,[4],28000 nM
O=C(O)C1=C(/C=C/c2ccccn2)CS(=O)(=O)[C@@H]2/C(=C\c3ccccn3)C(=O)N12,IC50,[1],200 nM
same,IC50,[3],180 nM
same,IC50,[4],4300 nM
O=C(Cc1ccc(O)c(O)c1)OCC1=C(C(=O)O)N2C(=O)/C(=C/c3ccccn3)C2S(=O)(=O)C1 (stereo unspecified),IC50,[1],17400 nM
same,IC50,[3],3600 nM
same,IC50,[4],67000 nM
C=C1C(/C=C/C(=O)O)=C(C(=O)O)N2C(=O)/C(=C/c3ccccn3)C2S1(=O)=O (stereo unspecified),IC50,[1],2500 nM
same,IC50,[3],6600 nM
CCOC(=O)CNC(=O)OCC1=C(C(=O)O)N2C(=O)/C(=C/c3ccccn3)C2S(=O)(=O)C1 (stereo unspecified),IC50,[1],260000 nM
same,IC50,[2],45000 nM
same,IC50,[3],400 nM
same,IC50,[4],33400 nM
NC(=O)/C=C/C1=C(C(=O)O)N2C(=O)/C(=C/c3cccs3)C2S(=O)(=O)C1 (stereo unspecified),IC50,[1],900 nM
same,IC50,[3],290 nM
same,IC50,[4],154000 nM
N#C/C=C/C1=C(C(=O)O)N2C(=O)/C(=C/c3ccccn3)C2S(=O)(=O)C1 (stereo unspecified),IC50,[1],14 nM
same,IC50,[5],12 nM
same,IC50,[4],720 nM
same,IC50,[6],10 nM
N#CCC1=C(C(=O)O)N2C(=O)/C(=C/c3ccccn3)C2S(=O)(=O)C1 (stereo unspecified),IC50,[1],5600 nM
same,IC50,[3],900 nM
same,IC50,[4],8900 nM
NC(=O)OCC1=C(C(=O)O)N2C(=O)/C(=C/c3ccccn3)C2S(=O)(=O)C1 (stereo unspecified),IC50,[1],10500 nM
same,IC50,[2],260 nM
same,IC50,[3],2300 nM
same,IC50,[4],7900 nM
CC(C)(C)OC(=O)/C=C/C1=C(C(=O)O)N2C(=O)/C(=C/c3ccccn3)C2S(=O)(=O)C1 (stereo unspecified),IC50,[3],1480 nM
same,IC50,[4],240000 nM
O=C(O)/C=C/C1=C(C(=O)O)N2C(=O)/C(=C/c3ccccn3)C2S(=O)(=O)C1 (stereo unspecified),IC50,[1],2500 nM
same,IC50,[3],310 nM
same,IC50,[4],31000 nM
CCC(=O)OCC1=C(C(=O)O)N2C(=O)/C(=C/c3ccccn3)C2S(=O)(=O)C1 (stereo unspecified),IC50,[1],311000 nM
same,IC50,[4],15400 nM
